Results on one molecule are retold here after patent US8124655B2, “Use of LR-90 and LR-102 to overcome insulin resistance” (City of Hope, priority 2007, dated 2012).

In assay [1] the test system is Zucker diabetic fatty rats (ZDF, fa/fa). The assay can be described thus: Kidney histology, gene and protein expression and lipid peroxidation (Example 2). It counts as in vivo, rat. Here is the method:
FIG. 9. Representative photomicrographs of immunohistochemicals stainings of kidney tissues. A. Periodic Acid-Metheamine Silver (PAMS); B, Masson'S Trichrome; C, AGE; and D, RAGE stainings of kidneys from lean, ZDF and LR-90 treated ZDF rats.
FIG. 10. mRNA expression of TGF-B1, CTGF, fibronectin and RAGE in the kidney cortex. Renal cortices from each treatment group were analyzed by for TGF-B1, CTGF, fibronectin and RAGE gene expression by RT-PCR. A. Representative gel profiles; B, Quantitative results of band densities. 18s/18 sII were used as internal controls.
FIG. 11. Protein expression of TGF-B1 and CTGF in the kidney cortex. Renal cortices from each treatment group were analyzed by for TGF-B1 and CTGF protein expression by Western blotting and immunostaining with specific antibodies. Representative gel profiles and densiitometric quantitation of protein bands. *P<0.01 vs. lean, **P<0.01 vs. ZDF
FIG. 12. Representative immunohistochemical staining for TGF-B1 and CTGF in the kidney cortex. Renal cortices from each treatment group were probed with specific antibodies against TGF-β1 and CTGF.
FIG. 13. Effect of LR-90 on kidney lipid peroxidaton. A. Kidney lipid peroxides were analyzed by measuring malondialdehyde (MDA) in tissue homogenates using the TBARS method. B. Correlation of lipid peroxidation with urinary albumin excretion rates. *P<0.05 vs. ZDF, **P<0.01 vs. ZDF.
The present Example presents the results of an investigation of the effects of LR-90, an inhibitor of AGE/ALE formation, in male Zucker diabetic fatty rats (ZDF, fa/fa) fed with Purina 5008 diet until 40 weeks of age, and their hetorozygous lean littermates (ZDF fa/+) as non-hyperglycemic controls. LR-90 at 50 mg/L of drinking water was given to a subgroup of ZDF rats after the rats developed spontaneous diabetes at 13 weeks of age. At 40 weeks of age, and before killing the animals, their weight was measured; HbA1c, plasma glucose, insulin, triglycerides, cholesterol, CRP and urinary albumin and creatinine concentrations were measured. After euthanizing all animals, organs such as the kidneys, eyeballs, liver, heart, aortae and pancreas were dissected and subjected to immunohistochemical staining, RT-PCR, Western blotting and microscopy.

Assay [2] shares this test system. The assay can be described thus: Pancreatic islet immunohistochemistry and PAMS staining (Example 2). It counts as in vivo, rat. The text has this: FIG. 7. Immunohistochemical analysis and quantification of islet cells. ZDF GM fa/fa rats and lean control rats were fed with high fat diet for 30 weeks and received either nothing or LR-90 or LR-102 in their drinking water. Pancreatic sections from various groups of animals were stained with anti-insulin antibody or anti-glucagon antibody. A. Representative images with the overlay of the insulin (green) and glucagon (red staining). […] B. Insulin-positive β-cell-to-glucagon-ratio was also measured from these images.
FIG. 8. Periodic acid methenamine silver (PAMS) staining of pancreatic tissues. Sections from cryopreserved pancreas of each group of animals on the study were stained with PAMS and examined under light microscopy.
LR-90 at 50 mg/L of drinking water was given to a subgroup of ZDF rats after the rats developed spontaneous diabetes at 13 weeks of age. At 40 weeks of age, and before killing the animals, their weight was measured; HbA1c, plasma glucose, insulin, triglycerides, cholesterol, CRP and urinary albumin and creatinine concentrations were measured. After euthanizing all animals, organs such as the kidneys, eyeballs, liver, heart, aortae and pancreas were dissected and subjected to immunohistochemical staining, RT-PCR, Western blotting and microscopy.

The test system of assay [3] is p38 MAPK, p44/42 MAPK, p65 subunit of NF-κB. The assay can be described thus: Renal MAPKs and NF-κB activation by western blot. It counts as in vivo, rat. The procedure: Renal cortical tissues were homogenised in PBS buffer with 1% (vol./vol.) Nonidet P-40, 0.5% (wt/vol.) sodium deoxycholate, 0.1% (wt/vol.) SDS and protease inhibitor mixture (Roche, Indianapolis, Ind., USA). Homogenates were centrifuged for 15 min at 4° C. and at 12,000 rpm and the supernatant fractions collected and stored at −70° C. Nuclear extracts were prepared as described previously. Protein concentrations were measured using the Bio-Rad DC Assay kit. Total RNA was isolated using the RNA-STAT-60 reagent (Tel-Test, Friendswood, Tex., USA). Western blot assay Protein samples (50 μg) were separated on 10 to 20% gradient Tris-glycine Criterion gels (Bio-Rad) and then transferred to nitrocellulose membranes. The membranes were blocked with 5% (wt/vol.) skimmed milk in PBS before incubation with anti-TGF-β1, anti-CTGF, anti-AGER, anti-phospho-p38 MAPK, anti-phospho-p44/42 MAPK and anti-p65 NF-κB antibodies. Immunoreactive proteins were detected by enhanced chemiluminescence (Western Lightning Chemiluminescence Reagent; Perkin-Elmer, Waltham, Mass., USA) using horseradish peroxidase-labelled secondary antibodies. Equal amounts of protein loading were confirmed by restaining the membranes with antibodies against β-actin, p38 MAPK or p44/42 MAPK for cytosolic extracts or with histone H2B for nuclear extracts. Band intensities were quantified using a densitometer (Quantity One, Bio-Rad). Reverse transcriptase-polymerase chain reaction Total RNA (1 μg) was used for the RT reaction using the GeneAmp RNA PCR kit (Applied Biosystems, Foster City, Calif., USA). Total cDNA was then used in PCR reactions containing gene specific primers [Electronic supplementary material (ESM) Table 1] paired with Quantum 18S rRNA internal standards (Ambion, Austin, Tex., USA). Multiplex PCR reactions were performed in a GeneAmp 9700 (Applied Biosystems). […] The densities of amplified products corresponding to specific genes and 18S rRNA were quantified with Quantity One software (Bio-Rad). Results are expressed as the means of the ratios of Tgfb1, Ctgf or Ager band densities to the 18S rRNA band density.
In general terms: Immunoblotting shows a protein as a band on a membrane.

Assay [4] has as its system Zucker diabetic fatty (ZDF) rat. The assay can be described thus: Kidney lipid peroxidation (malondialdehyde, TBARS), Example 1. The note with it: ZDF animals. It counts as in vivo. The procedure:
To assess lipid peroxidation in renal cortical homogenates, malondialdehyde, an end-product of lipid peroxidation, was measured as thiobarbituric acid reactive substances by calorimetric reaction as described. Reaction was carried in the presence of EDTA and antioxidant butylated hydroxytoluene, and the absorbance was measured at 532 nm (UV-1601; Shimadzu Scientific Instruments, Columbia, Md., USA). Hydrolysed 1,1,3,3-tetramethoxypropane was used as standard [prepared by incubating 10 mmol/l tetramethoxypropane with 1% (vol./vol.) H2SO4 for 2 h at room temperature]. Results are expressed as nanomole malondialdehyde per milligram protein.

For assay [5] the following is noted: described in U.S. Pat. No. 6,787,566; cited from earlier work.

As to `CC(C)(Oc1ccc(NC(=O)Nc2ccc(Cc3ccc(NC(=O)Nc4ccc(OC(C)(C)C(=O)O)cc4)c(Cl)c3)cc2Cl)cc1)C(=O)O` [LR-90, methylene bis[4,4′-(2-chlorophenylureidophenoxyisobutyric acid)]], the “reduction of kidney lipid peroxidation” value in assay [1] (ZDF animals, MDA by TBARS, Example 2) is given as roughly 40%; in assay [4], roughly 40%. Besides, in assay [1] (kidney of ZDF rats, FIGS. 9a and b), the “glomerulosclerosis, tubular degeneration and collagen deposition” value was “prevented”. In addition, the “renal AGE and RAGE accumulation” value in assay [1] (kidney of ZDF rats, FIGS. 9c and d) was “reduced”. In addition, the “TGF-β1 and CTGF gene and protein expression, fibronectin and RAGE mRNA” value in assay [1] (kidneys of ZDF rats, FIGS. 10, 11 and 12) is “significantly attenuated”. Besides, the “PAMS staining of pancreatic islets” value in assay [2] (FIG. 8) is reported as “amelioration”. Also, the “number of undamaged insulin-secreting islet cells in the pancreas” value in assay [2] (FIGS. 7 and 8) is on record as “significantly higher number”. In addition, the “activation of NF-κB (p65 subunit)” value in assay [3] (kidney nuclear extracts of ZDF rats, p<0.01) is reported as “significantly attenuated”. Also, the “activation of p44/42 MAPK” value in assay [3] (renal cortex of ZDF rats, p<0.01) is “significantly attenuated”. In addition, the “activation of p38 MAPK” value in assay [3] (renal cortex of ZDF rats, p<0.05) is given as “significantly attenuated”. Further, the “breaking AGE-protein cross-links” value in assay [5] is “active”.
